Source: patent US11672871B2, “Peptide oligonucleotide conjugates” (Sarepta Therapeutics, Inc., priority 2015, dated 2023)

System: HeLa-654 cells
Experiment: HeLa cell assay: e-GFP fluorescence from exon skipping / cellular delivery, by flow cytometry
Format: cell-based
Details: Accuri C6 flow cytometer, signal reflects exon skipping and cellular uptake
Protocol: The height of the green fluorescent signal bars indicate different intensities based on the level of exon skipping that occurs in the nucleus of HeLa-654 cells, whether the cells are treated or untreated with test compounds. The signal intensity or size of the bar also corresponds to the effectiveness of cellular uptake (that is, delivery into the cell). […] The various treatment regimens include continuous treatment of HeLa-654 cells over time or pulse-chase treatments where a test compound is incubated with cells and then after a period of time (3 hours) is washed away from the cells and fresh, test compound-free media is added.
Results: The baseline activity of unconjugated PMO and untreated cells is shown. The peptide/PMO (PPMO) conjugates of the present disclosure all show greater cellular uptake than: 1) unconjugated PMO, and 2) untreated cells (which reveal the green fluorescent background signal). This difference in fluorescence intensity between the peptide/PMO conjugates of the present invention and the background or unconjugated-PMO indicates significant pharmacological activity of the stapled peptide/PMO conjugates.

## PPMO 3: (i, i+4) hexafluorobenzene-stapled peptide-PMO conjugate, sequence SEQ ID NO: 9 (GCTATTACCTTAACCCAG; all phosphorodiamidate morpholino (PMO); stapled cell-penetrating peptide conjugated to PMO)
  Mean FL1-H (mean fluorescence intensity of e-GFP): 123,401.08
